In brackets after ≈: the same amount, converted by molar mass. Like-named read-outs stand apart in the source and are kept apart here.
What was measured:
[1] = system: Pseudoperonospora cubensis; test: whole plant or invertebrate; type: in vivo; conditions: in Cucumis sativus, 168 h
Pythium ultimum = test: In-vitro plant fungicide test, PYU; type: cell-based; conditions: Globisporangium ultimum, read-out: % Control; for inhibition of growth at 25 ppm: rate 25 PPM; for inhibition of growth at 50 ppm: rate 50 PPM
Pseudomonas fluorescens = test: MIC, broth two-fold serial dilution test, Psfl; type: cell-based; conditions: read-out: Minimum Inhibitory Concentration (MIC)
Experimental: (§1) A minimum inhibitory concentration (MIC) value is obtained using a broth, two-fold serial dilution test performed as follows: […] A volume of the stock solution is dispensed into culture media to give an initial starting test concentration of 500 ppm compound. The test is carried out by adding and equal volume of broth to each vessel in the dilution series, except for the first vessel. The first vessel contains twice the volume of broth plus the initial concentration of test compound. One half of the broth from the first vessel is transferred to the second vessel. After being mixed, one half the resulting volume is removed from the second vessel and transferred to the third vessel. The entire cycle is repeated sufficiently to give a series of concentrations amounting to 500, 250, 125, 63, 31, 16, 8, and 4 ppm (or 100, 50, 25, 12.5, 6.2, 3.1, 1.6, and 0.8), respectively. Each vessel is then inoculated with a cell suspension of the appropriate test organism. Bacteria are grown in both and fungi on agar slats for a time and at a temperature appropriate to the species being tested. At the end of the growth period, the broth is vortexed to disperse the cells. In the case of fungi, the pores are harvested by pipetting water onto the slant and dislodging the spores with a sterile loop. The cell/spore suspension is standardized by controlling incubation time, temperature, and the volume of the diluent. The suspension is then used to inoculate the vessels containing the broth compound. The vessels are then incubated at the appropriate temperature. After the incubation, the vessels are examined for growth/no growth. The minimum inhibitory concentration (MIC) is defined as the lowest concentration of compound that results in complete inhibition of growth of the test organism.

Piricularia oryzae [2] = test: microbe, parasite or virus in culture; type: cell-based; conditions: read-out: % Control
[3] = system: Puccinia recondita (f. sp. tritici Races PKB and PLD); test: whole plant or invertebrate; type: in vivo; conditions: 240 h
Fusarium roseum = test: microbe, parasite or virus in culture; conditions: Fusarium sambucinum, read-out: % Control
Septoria nodorum = test: In-vitro plant fungicide test, SEP; type: cell-based; conditions: Parastagonospora nodorum, read-out: % Control; for inhibition of growth at 25 ppm: rate 25 PPM; for inhibition of growth at 50 ppm: rate 50 PPM
Xanthomonas campestris = test: In-vitro plant fungicide test, XAN; type: cell-based; conditions: read-out: % Control; for inhibition of growth at 50 ppm: rate 50 PPM
Aureobasidium pullulans = test: MIC, broth two-fold serial dilution test, Apul; type: cell-based; conditions: read-out: Minimum Inhibitory Concentration (MIC)
Experimental: as §1

Escherichia coli = test: MIC, broth two-fold serial dilution test, Ecol; type: cell-based; conditions: read-out: Minimum Inhibitory Concentration (MIC)
Experimental: as §1

[4] = system: Septoria glume blotch of wheat; test: whole plant or invertebrate; type: in vivo; conditions: Triticum aestivum
Cochliobolus sativus = test: In-vitro plant fungicide test, HEL; type: cell-based; conditions: Bipolaris sorokiniana, read-out: % Control; for inhibition of growth at 25 ppm: rate 25 PPM; for inhibition of growth at 50 ppm: rate 50 PPM
Botrytis cinerea = test: In-vitro plant fungicide test, BOC; conditions: read-out: % Control
[5] = system: Erysiphe graminis (f. sp. tritici); test: whole plant or invertebrate; type: in vivo; conditions: Blumeria graminis
Phytophthora capsici = test: In-vitro plant fungicide test, PHY; type: cell-based; conditions: read-out: % Control; for inhibition of growth at 25 ppm: rate 25 PPM; for inhibition of growth at 50 ppm: rate 50 PPM
Staphylococcus aureus = test: MIC, broth two-fold serial dilution test, Saur; type: cell-based; conditions: read-out: Minimum Inhibitory Concentration (MIC)
Experimental: as §1

Phytophthora infestans = test: whole plant or invertebrate; type: in vivo; conditions: in Solanum lycopersicum, 96 h, read-out: % Control
Piricularia oryzae [6] = test: whole plant or invertebrate; type: in vivo; conditions: Pyricularia oryzae, 192 h, read-out: % Control
Aspergillus niger = test: MIC, broth two-fold serial dilution test, Anig; type: cell-based; conditions: read-out: Minimum Inhibitory Concentration (MIC)
Experimental: as §1

Pseudomonas aerugenosa = test: MIC, broth two-fold serial dilution test, Psae; type: cell-based; conditions: read-out: Minimum Inhibitory Concentration (MIC)
Experimental: as §1

Rhizoctonia solani = test: In-vitro plant fungicide test, RHI; type: cell-based; conditions: read-out: % Control; for inhibition of growth at 25 ppm: rate 25 PPM; for inhibition of growth at 50 ppm: rate 50 PPM

| SMILES | pest or weed control at 200 ppm [1] | inhibition of growth at 25 ppm (Pythium ultimum) | MIC (Pseudomonas fluorescens) | inhibition of growth at 25 ppm (Piricularia oryzae [2]) | pest or weed control at 200 ppm [3] | inhibition of growth at 25 ppm (Fusarium roseum) | inhibition of growth at 25 ppm (Septoria nodorum) | MIC (Aureobasidium pullulans) | MIC (Escherichia coli) | pest or weed control at 200 ppm [4] | inhibition of growth at 25 ppm (Cochliobolus sativus) | inhibition of growth at 25 ppm (Botrytis cinerea) | pest or weed control at 200 ppm [5] | inhibition of growth at 25 ppm (Phytophthora capsici) | MIC (Staphylococcus aureus) | pest or weed control at 200 ppm (Phytophthora infestans) | pest or weed control at 200 ppm (Piricularia oryzae [6]) | MIC (Aspergillus niger) | MIC (Pseudomonas aerugenosa) | inhibition of growth at 25 ppm (Rhizoctonia solani) | other results |
| --- | --- | --- | --- | --- | --- | --- | --- | --- | --- | --- | --- | --- | --- | --- | --- | --- | --- | --- | --- | --- | --- |
| COC(=O)N(CC#CBr)N=Cc1ccc(F)cc1 [Compound 7, N'-Methoxycarbonyl-N'-3-bromopropargyl 4-fluorobenzaldehyde hydrazone] | 0% | 0% | 125 µg/mL (≈ 399 µM) | 0% | 0% | 0% | 100% | 31 µg/mL (≈ 99 µM) | 125 µg/mL (≈ 399 µM) | 0% | 0% | 0% | 0% | 0% | 63 µg/mL (≈ 201 µM) | 0% | 0% | 31 µg/mL (≈ 99 µM) | 31 µg/mL (≈ 99 µM) | 0% | inhibition of growth at 50 ppm (Pythium ultimum): 100%; inhibition of growth at 50 ppm (Piricularia oryzae [2]): 90%; inhibition of growth at 50 ppm (Fusarium roseum): 0%; inhibition of growth at 50 ppm (Septoria nodorum): 0%; inhibition of growth at 50 ppm (Xanthomonas campestris; XAN): 0%; inhibition of growth at 25 ppm (Xanthomonas campestris): 0%; inhibition of growth at 50 ppm (Cochliobolus sativus): 0%; inhibition of growth at 50 ppm (Botrytis cinerea): 0%; inhibition of growth at 50 ppm (Phytophthora capsici): 90%; inhibition of growth at 50 ppm (Rhizoctonia solani): 0% |
| COC(=O)N(CC#CI)N=Cc1ccc(F)cc1 [Compound 10, N'-Methoxycarbonyl-N'-3-iodopropargyl 4-fluorobenzaldehyde hydrazone] | 50% |  | > 500 µg/mL |  | 0% |  |  | < 4 µg/mL | > 500 µg/mL | 0% |  |  | 50% |  | < 4 µg/mL | 0% | 50% | < 4 µg/mL | > 500 µg/mL |  | inhibition of growth at 50 ppm (Pythium ultimum): 100%; inhibition of growth at 50 ppm (Piricularia oryzae [2]): 100%; inhibition of growth at 50 ppm (Fusarium roseum): 100%; inhibition of growth at 50 ppm (Septoria nodorum): 100%; inhibition of growth at 50 ppm (Xanthomonas campestris; XAN): 0%; inhibition of growth at 50 ppm (Cochliobolus sativus): 100%; inhibition of growth at 50 ppm (Botrytis cinerea): 0%; inhibition of growth at 50 ppm (Phytophthora capsici): 100%; inhibition of growth at 50 ppm (Rhizoctonia solani): 100% |
| CCOC(=O)N(CC#CI)N=Cc1ccc(Cl)c(Cl)c1 [Compound 13, N'-Ethoxycarbonyl-N'-3-iodopropargyl 3,4-dichlorobenzaldehyde hydrazone] | 85% | 0% | > 100 µg/mL | 100% | 50% | 75% | 50% | > 100 µg/mL | > 100 µg/mL | 0% | 50% | 0% | 50% | 0% | > 100 µg/mL | 0% | 0% | 100 µg/mL (≈ 235 µM) | > 100 µg/mL | 90% | inhibition of growth at 25 ppm (Xanthomonas campestris; XAN, rate 25 PPM): 0% |
| CCOC(=O)N(CC#CBr)N=Cc1ccc(Cl)c(Cl)c1 [Compound 14, N'-Ethoxycarbonyl-N'-3-bromopropargyl 3,4-dichlorobenzaldehyde hydrazone] | 0% | 0% | > 100 µg/mL | 0% | 0% | 0% | 0% | > 100 µg/mL | > 100 µg/mL | 0% | 0% | 0% | 85% | 0% | > 100 µg/mL | 0% | 0% | > 100 µg/mL | > 100 µg/mL | 50% | inhibition of growth at 25 ppm (Xanthomonas campestris; XAN, rate 25 PPM): 0% |
| COC(=O)N(CC#CI)N=Cc1cc(Cl)cc(Cl)c1 [Compound 15, N'-Methoxycarbonyl-N'-3-iodopropargyl 3,5-dichlorobenzaldehyde hydrazone] | 0% | 0% | > 100 µg/mL | 100% | 0% | 75% | 0% | > 100 µg/mL | > 100 µg/mL | 0% | 50% | 0% | 0% | 0% | > 100 µg/mL | 0% | 0% | > 100 µg/mL | > 100 µg/mL | 75% | inhibition of growth at 25 ppm (Xanthomonas campestris; XAN, rate 25 PPM): 0% |
| COC(=O)N(CC#CBr)N=Cc1cc(Cl)cc(Cl)c1 [Compound 16, N'-Methoxycarbonyl-N'-3-bromopropargyl 3,5-dichlorobenzaldehyde hydrazone] | 0% | 0% | > 100 µg/mL | 0% | 0% | 0% | 0% | > 100 µg/mL | > 100 µg/mL | 0% | 0% | 0% | 0% | 0% | > 100 µg/mL | 0% | 0% | > 100 µg/mL | > 100 µg/mL | 0% | inhibition of growth at 25 ppm (Xanthomonas campestris; XAN, rate 25 PPM): 0% |
